{"source": "patent US8680282B2", "about": "“Cyclic inhibitors of carnitine palmitoyltransferase and treating cancer” (University Health Network, priority 2007, dated 2014)", "key": {"SW620": {"tested_on": "SW620", "assay": "Cancer cell growth inhibition, SRB assay", "assay_type": "cell-based, human", "conditions": "Homo sapiens, SW-620, 144 h; SW620 (Colon); SRB at Day 6; triplicate"}, "COLO-205": {"tested_on": "COLO-205", "assay": "Cancer cell growth inhibition, SRB assay", "assay_type": "cell-based, human", "conditions": "Homo sapiens, 144 h; COLO-205 (Colon); SRB at Day 6; triplicate"}, "human CPT1A": {"target": "T1, human CPT1A (Homo sapiens, UniProt P50416)", "T1 construct": "made in house; host or cells: Saccharomyces cerevisiae (pESC-trp) or cultured mammalian cells (pCDNA3.1); mitochondrial extract", "T1 sequence (P50416 1-773)": "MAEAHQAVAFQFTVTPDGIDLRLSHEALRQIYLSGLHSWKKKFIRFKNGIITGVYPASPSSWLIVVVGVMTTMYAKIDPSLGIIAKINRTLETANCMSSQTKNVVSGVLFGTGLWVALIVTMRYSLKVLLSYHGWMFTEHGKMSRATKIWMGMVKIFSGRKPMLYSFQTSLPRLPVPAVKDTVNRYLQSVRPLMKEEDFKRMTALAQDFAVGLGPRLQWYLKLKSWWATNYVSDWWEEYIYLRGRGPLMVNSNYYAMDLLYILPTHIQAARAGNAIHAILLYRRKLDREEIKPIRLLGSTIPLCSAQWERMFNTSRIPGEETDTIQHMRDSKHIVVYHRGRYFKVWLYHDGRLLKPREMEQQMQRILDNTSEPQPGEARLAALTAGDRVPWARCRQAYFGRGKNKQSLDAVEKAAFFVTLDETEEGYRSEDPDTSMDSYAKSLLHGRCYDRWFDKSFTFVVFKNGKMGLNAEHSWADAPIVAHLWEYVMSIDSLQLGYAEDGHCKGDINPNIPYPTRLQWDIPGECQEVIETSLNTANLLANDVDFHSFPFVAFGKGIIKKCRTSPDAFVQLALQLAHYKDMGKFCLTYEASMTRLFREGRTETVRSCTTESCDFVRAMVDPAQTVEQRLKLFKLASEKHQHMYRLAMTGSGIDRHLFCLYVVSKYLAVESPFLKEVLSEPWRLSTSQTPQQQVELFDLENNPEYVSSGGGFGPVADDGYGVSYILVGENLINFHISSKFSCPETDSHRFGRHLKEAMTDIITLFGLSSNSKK", "assay": "Human CPT1A LC/MS assay", "assay_type": "biochemical", "conditions": "human CPT1A LC/MS assay, dose response format"}}, "data": [{"smiles": "CCCCCCCCc1ccc(NC(=O)NC2(CC(=O)O)CCC[N+](C)(C)C2)cc1", "note": "(stereo not drawn) [Example S10, 3-(carboxymethyl)-1,1-dimethyl-3-(3-(4-octylphenyl)ureido)-piperidinium 2,2,2-trifluoroacetate]", "values": [{"measurement": "GI50", "setting": "SW620", "result": 2.5, "unit": "µM"}, {"measurement": "GI50", "setting": "COLO-205", "result": 1, "unit": "µM"}, {"measurement": "IC50", "setting": "human CPT1A", "result": "10 to 100", "unit": "µM"}]}, {"smiles": "CCCCCCCCc1ccc(NS(=O)(=O)NC2(CC(=O)O)CCCN(C)C2)cc1", "note": "(stereo not drawn) [Example S15, 3-(carboxymethyl)-1-methyl-3-(N-(4-octylphenyl)sulfamoylamino)-piperidinium 2,2,2-trifluoroacetate]", "values": [{"measurement": "GI50", "setting": "SW620", "result": 27, "unit": "µM"}, {"measurement": "GI50", "setting": "COLO-205", "result": 21, "unit": "µM"}, {"measurement": "IC50", "setting": "human CPT1A", "result": "10 to 100", "unit": "µM"}]}]}
